The values below come from ChEMBL document CHEMBL1201862, “PubChem BioAssay data set” (2004).

Assay [1] addresses T1, ATP-dependent translocase ABCB1 (Homo sapiens, UniProt P08183). Description: ABCB1 efflux inhibitor potency, dose response, Jurkat-DNR cells, JC-1, flow cytometry, set 2 (AID 504569).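 Note: potency of pump inhibitors that raise cellular JC-1 green fluorescence up to the nicardipine level.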 Format: functional. As to conditions: read-out: EC50_MICROM_.
The target in assay [2] is T1, ATP-dependent translocase ABCB1. Description: ABCG2 efflux pump inhibitor potency, dose response, Ig-MXP3 cells, JC-1, flow cytometry, set 2 (AID 504566).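 Note: flow cytometry median green fluorescence of retained JC-1 dye; potency of efflux pump inhibition measured as rising substrate retention.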 Type of assay: functional. As to conditions: read-out: EC50_MICROM_. In general terms: A flow cytometer gives signals particle by particle.
The next assay deals with H9c2. Description: cells. As to conditions: Rattus norvegicus, H9c2, Myocardium. Type of assay: functional, cell-based.
A further assay addresses Steroidogenic factor 1 (Homo sapiens, UniProt Q13285). Kind of assay: Counterscreen for inverse agonists of the liver receptor homolog-1 (LRH-1; NR5A2): Luminescence-based cell-based high throughput dose response assay to identify inverse agonists of the Steroidogenic Factor 1 Nuclear Receptor (SF1; NR5A1). Type of assay: functional.
The nature of assay [3]: StAR promoter reporter inhibition counter-screen, dose response, counter-screen for LRH-1 inverse agonist project, cell-based, luminescence, luciferase reporter (AID 651969). Format: functional. (A counterscreen serves to expose hits that act by an unwanted route or on another target.)
Assay [4] has as its target Nuclear receptor subfamily 5 group A member 2 (Homo sapiens, UniProt O00482). Type of assay: functional, cell-based.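 Note: HEK293T cells transfected with LRH-1 and a StAR promoter luciferase reporter; potency for inhibitors that lower LRH-1 driven reporter light.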
Assay [5] concerns the target T2, Apoptotic protease-activating factor 1 (Homo sapiens, UniProt O14727).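 Note: caspase-3 cleavage of fluorogenic Rh110 DEVD substrate downstream of apoptosome activation.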
T2 sequence (O14727 whole entry): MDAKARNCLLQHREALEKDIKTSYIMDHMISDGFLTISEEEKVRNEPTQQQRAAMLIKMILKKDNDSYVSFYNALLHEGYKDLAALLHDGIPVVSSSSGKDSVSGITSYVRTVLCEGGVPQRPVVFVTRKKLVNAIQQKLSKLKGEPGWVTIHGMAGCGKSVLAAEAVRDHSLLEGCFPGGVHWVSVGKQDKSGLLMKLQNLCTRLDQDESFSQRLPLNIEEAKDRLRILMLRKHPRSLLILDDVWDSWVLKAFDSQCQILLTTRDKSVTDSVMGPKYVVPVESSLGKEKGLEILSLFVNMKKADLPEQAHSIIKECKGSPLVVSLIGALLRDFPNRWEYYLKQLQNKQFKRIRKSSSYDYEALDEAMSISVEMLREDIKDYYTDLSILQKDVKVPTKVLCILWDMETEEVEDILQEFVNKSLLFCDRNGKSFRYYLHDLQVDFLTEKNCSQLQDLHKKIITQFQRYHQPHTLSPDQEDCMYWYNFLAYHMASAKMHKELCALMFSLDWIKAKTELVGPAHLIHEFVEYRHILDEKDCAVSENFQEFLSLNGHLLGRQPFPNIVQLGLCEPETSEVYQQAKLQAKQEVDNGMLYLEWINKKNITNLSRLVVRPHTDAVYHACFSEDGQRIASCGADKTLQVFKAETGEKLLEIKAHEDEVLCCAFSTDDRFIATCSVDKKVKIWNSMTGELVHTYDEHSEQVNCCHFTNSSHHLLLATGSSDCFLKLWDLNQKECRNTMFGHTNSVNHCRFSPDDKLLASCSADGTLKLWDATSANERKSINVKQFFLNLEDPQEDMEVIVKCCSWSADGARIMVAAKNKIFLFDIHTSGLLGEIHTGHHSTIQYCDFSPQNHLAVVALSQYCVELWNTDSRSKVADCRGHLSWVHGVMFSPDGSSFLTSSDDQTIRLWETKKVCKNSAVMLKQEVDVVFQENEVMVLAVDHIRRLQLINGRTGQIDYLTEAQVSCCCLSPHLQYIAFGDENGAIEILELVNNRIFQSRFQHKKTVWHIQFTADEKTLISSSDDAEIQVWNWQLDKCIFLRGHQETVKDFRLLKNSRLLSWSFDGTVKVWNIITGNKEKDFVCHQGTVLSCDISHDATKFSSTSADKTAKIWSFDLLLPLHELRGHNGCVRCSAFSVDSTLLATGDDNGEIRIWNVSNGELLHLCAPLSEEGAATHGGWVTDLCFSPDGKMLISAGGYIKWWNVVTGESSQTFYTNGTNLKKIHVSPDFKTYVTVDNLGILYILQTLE
Kind of assay: SAR analysis of small molecule Activators of Apaf-1 in a Fluorescent assay. Format: functional. As to conditions: read-out: EC50_Mean.

The nature of assay [6]: growth suppression of beta-catenin-knockout colon cells, dose response, cell-based, HCT116, human colon tumor (AID 1045).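 Note: HCT116 colon tumor cells with beta catenin knocked out; cells exposed to compound for 60 hours.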 Type of assay: functional.
Assay [7] deals with BJ. Kind of assay: cytotoxicity toward BJ-TERT-LT-ST fibroblasts, dose response, cell-based, RAS-independent, luminescence (AID 1935).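 Note: BJ fibroblasts immortalized with TERT plus LT and ST oncogenes.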 Format: functional. As to conditions: Homo sapiens.
For assay [8], the target named is T3, Replicative DNA helicase DnaB (Mycobacterium tuberculosis, UniProt P9WMR3).
T3 sequence (P9WMR3 whole entry): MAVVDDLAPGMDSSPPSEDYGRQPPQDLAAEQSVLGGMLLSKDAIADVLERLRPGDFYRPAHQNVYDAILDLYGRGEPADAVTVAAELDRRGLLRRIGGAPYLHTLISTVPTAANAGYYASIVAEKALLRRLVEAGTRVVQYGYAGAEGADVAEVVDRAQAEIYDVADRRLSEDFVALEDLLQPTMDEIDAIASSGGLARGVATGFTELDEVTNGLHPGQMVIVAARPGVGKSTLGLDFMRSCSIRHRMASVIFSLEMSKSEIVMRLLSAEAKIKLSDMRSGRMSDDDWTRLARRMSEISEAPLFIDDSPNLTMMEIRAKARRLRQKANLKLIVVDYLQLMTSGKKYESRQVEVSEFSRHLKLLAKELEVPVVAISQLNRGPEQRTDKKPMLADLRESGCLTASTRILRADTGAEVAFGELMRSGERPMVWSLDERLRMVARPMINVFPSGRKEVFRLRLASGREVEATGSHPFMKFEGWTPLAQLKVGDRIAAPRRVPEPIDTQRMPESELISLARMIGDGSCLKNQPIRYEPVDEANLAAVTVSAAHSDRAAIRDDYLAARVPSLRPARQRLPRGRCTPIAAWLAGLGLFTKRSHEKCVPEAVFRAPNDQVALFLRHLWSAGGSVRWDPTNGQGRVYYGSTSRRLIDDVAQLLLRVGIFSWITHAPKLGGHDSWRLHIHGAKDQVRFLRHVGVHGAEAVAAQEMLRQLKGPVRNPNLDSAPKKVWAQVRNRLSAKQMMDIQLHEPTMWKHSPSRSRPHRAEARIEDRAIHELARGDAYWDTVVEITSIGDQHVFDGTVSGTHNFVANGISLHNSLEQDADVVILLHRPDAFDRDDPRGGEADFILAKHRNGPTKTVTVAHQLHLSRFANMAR
Description: DnaB intein splicing inhibitors, dose response, biochemical, cell-free fluorescence (AID 449749). Format: functional.

For the next assay, the target named is T4, Hexokinase HKDC1 (Homo sapiens, UniProt Q2TB90).
T4 sequence (Q2TB90 whole entry): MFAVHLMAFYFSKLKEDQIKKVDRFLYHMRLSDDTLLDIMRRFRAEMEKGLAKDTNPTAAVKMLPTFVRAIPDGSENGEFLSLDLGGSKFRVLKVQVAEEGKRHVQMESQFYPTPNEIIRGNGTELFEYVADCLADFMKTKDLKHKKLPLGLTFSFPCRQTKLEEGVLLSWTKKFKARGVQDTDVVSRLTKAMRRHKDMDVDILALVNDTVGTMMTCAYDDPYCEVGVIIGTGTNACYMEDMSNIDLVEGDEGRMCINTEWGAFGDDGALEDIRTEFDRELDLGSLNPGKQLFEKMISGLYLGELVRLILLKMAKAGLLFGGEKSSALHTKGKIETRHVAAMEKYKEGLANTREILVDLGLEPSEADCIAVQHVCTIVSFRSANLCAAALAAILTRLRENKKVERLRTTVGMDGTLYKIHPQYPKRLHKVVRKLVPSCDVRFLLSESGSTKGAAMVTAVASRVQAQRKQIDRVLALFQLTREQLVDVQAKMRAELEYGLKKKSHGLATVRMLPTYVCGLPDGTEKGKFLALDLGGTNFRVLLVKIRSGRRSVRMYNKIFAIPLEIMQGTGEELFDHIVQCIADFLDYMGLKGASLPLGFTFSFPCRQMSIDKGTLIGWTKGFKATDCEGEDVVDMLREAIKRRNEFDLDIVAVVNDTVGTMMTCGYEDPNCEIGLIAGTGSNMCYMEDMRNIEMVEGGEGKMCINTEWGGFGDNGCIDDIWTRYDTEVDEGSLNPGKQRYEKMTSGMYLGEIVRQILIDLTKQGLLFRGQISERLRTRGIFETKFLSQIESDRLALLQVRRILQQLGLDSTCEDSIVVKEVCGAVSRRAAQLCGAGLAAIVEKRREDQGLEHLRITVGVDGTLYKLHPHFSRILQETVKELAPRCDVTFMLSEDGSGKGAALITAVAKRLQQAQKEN
Description: HKDC1 hexokinase inhibitors, dose response, biochemical, W721R variant (AID 504729). Format: functional.

In assay [9] the test system is BJ. Description: cells. Format: functional, cell-based. As to conditions: Homo sapiens.
Assay [10] has as its target T5, Mitochondrial peptide methionine sulfoxide reductase (Bos taurus, UniProt P54149).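 Note: absorbance read-out, biochemical high-throughput dose-response screen for MsrA inhibitors, confirmatory; recombinant bovine MsrA coupled to E. coli TrxB with NADPH and selenocystamine; potency is for inhibitors of MsrA activity on DMSO substrate.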
T5 sequence (P54149 whole entry): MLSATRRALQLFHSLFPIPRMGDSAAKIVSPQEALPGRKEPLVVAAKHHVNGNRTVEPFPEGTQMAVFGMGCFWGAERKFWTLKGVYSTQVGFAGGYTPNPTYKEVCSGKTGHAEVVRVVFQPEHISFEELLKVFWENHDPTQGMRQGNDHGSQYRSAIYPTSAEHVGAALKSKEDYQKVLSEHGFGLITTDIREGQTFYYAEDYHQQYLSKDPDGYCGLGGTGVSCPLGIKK
Format: functional.

Assay [11] in a line: cytotoxicity toward DRD oncogenic fibroblasts, dose response, cell-based, non-viral oncogenic, luminescence (AID 1934). Type of assay: functional. As to conditions: Homo sapiens.
Assay [12] relates to BJ. Description: cytotoxicity toward BJ-TERT fibroblasts, dose response, cell-based, RAS-independent, luminescence (AID 1933). Format: functional. As to conditions: Homo sapiens.
The target of a further assay is T6, Protein RecA (Mycobacterium tuberculosis, UniProt P9WHJ3).
T6 sequence (P9WHJ3 whole entry): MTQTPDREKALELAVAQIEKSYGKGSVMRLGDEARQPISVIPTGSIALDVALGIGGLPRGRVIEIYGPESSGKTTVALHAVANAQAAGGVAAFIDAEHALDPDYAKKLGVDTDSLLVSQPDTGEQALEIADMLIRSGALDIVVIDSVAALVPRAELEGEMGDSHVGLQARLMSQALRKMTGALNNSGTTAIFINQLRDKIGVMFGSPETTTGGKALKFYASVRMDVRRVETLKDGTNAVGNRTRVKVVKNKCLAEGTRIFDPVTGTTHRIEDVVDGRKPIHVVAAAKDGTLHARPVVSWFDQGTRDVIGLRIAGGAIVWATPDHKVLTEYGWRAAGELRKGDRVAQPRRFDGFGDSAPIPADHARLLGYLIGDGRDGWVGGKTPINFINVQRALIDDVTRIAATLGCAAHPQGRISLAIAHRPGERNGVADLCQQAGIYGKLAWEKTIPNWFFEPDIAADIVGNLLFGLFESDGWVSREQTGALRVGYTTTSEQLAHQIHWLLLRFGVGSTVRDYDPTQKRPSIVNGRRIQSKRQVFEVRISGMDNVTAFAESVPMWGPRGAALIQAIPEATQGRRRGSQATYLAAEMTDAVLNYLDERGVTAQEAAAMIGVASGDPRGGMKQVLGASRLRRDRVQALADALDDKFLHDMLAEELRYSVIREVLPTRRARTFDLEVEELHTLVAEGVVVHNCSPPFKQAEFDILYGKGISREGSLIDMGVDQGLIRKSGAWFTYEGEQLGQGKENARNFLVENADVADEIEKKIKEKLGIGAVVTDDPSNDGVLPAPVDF
Description: Fluorescence Cell-Free Homogeneous Dose Retest to Identify Inhibitors of RecA-Intein Splicing Activity. [Related pubchem assays (depositor defined):AID2097, AID2223, AID489010, AID492950]. Type of assay: functional.

A short description of assay [13]: growth suppression of PTEN-null colon cells, dose response, cell-based, HCT116 PTEN knockout (AID 1047).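 Note: HCT116 colon tumor cells with PTEN knocked out; cells exposed to compound for 60 hours before readout; potency for loss of cell viability measured by luminescence.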 Type of assay: functional.
For assay [14], the target named is Potassium voltage-gated channel subfamily KQT member 2 (Rattus norvegicus, UniProt O88943). Description: KCNQ2 potassium channel inhibitors, dose response, cell-based, automated electrophysiology, set II, rat KCNQ2 (AID 588637). Type of assay: functional.
Sequence of Potassium voltage-gated channel subfamily KQT member 2 (O88943 whole entry): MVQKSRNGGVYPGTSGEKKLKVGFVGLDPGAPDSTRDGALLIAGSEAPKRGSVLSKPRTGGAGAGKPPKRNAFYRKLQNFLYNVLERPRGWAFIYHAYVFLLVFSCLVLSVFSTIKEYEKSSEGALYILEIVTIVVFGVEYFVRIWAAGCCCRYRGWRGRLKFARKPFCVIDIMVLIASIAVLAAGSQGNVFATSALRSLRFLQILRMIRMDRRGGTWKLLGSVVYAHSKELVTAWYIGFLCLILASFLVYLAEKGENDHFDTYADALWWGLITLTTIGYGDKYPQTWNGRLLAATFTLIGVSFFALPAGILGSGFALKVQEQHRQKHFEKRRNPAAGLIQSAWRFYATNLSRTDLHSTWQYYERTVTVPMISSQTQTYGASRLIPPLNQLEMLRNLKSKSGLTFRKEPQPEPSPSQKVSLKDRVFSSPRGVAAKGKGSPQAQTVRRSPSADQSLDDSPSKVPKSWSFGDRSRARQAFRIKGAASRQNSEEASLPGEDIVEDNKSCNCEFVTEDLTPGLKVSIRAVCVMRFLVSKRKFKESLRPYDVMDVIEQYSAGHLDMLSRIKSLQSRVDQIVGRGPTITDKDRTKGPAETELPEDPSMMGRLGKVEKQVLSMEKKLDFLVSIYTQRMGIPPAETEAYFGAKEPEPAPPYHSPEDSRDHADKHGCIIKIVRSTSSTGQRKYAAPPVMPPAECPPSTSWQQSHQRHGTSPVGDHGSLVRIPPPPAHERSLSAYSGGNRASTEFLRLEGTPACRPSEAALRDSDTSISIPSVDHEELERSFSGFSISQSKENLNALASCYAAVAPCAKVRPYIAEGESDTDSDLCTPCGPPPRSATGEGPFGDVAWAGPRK
Assay [15] has as its target Voltage-dependent T-type calcium channel subunit alpha-1H (Homo sapiens, UniProt O95180). Type of assay: functional.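 Note: channel activity triggered by adding a high calcium stimulation buffer.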

Activity calls are given as the source filed them.

T1 sequence (P08183 whole entry): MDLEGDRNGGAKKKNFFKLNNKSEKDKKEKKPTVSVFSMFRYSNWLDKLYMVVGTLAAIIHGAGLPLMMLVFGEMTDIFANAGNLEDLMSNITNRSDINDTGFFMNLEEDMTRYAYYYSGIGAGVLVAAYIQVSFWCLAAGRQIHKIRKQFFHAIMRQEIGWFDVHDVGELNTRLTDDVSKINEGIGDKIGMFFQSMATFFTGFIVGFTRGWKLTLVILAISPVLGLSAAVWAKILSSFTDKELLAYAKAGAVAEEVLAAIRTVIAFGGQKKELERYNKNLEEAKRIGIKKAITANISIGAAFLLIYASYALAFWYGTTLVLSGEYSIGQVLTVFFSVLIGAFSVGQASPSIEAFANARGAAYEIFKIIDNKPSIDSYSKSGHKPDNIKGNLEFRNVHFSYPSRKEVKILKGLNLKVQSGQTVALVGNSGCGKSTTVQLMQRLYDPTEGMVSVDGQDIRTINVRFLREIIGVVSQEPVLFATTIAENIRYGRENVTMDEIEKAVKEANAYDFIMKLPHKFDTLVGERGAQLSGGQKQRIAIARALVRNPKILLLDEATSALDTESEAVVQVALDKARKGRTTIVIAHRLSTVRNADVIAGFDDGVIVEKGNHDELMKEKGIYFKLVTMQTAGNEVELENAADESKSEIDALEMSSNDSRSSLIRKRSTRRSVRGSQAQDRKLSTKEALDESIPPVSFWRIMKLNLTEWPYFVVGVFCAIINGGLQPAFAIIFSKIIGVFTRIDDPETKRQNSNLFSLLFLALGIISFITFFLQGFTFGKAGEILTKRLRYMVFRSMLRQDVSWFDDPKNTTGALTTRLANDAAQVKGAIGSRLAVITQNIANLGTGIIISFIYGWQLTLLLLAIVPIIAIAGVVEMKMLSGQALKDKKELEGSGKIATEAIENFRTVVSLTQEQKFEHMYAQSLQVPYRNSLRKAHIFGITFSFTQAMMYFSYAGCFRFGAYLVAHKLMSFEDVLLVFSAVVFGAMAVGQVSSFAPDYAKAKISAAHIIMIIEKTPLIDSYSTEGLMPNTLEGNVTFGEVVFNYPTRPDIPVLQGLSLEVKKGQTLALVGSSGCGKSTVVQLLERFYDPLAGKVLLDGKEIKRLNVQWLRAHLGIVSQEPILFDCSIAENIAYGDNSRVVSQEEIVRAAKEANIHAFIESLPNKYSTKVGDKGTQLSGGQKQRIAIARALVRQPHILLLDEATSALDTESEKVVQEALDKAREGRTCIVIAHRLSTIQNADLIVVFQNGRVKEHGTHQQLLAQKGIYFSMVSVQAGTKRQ
Sequence of Nuclear receptor subfamily 5 group A member 2 (O00482 whole entry): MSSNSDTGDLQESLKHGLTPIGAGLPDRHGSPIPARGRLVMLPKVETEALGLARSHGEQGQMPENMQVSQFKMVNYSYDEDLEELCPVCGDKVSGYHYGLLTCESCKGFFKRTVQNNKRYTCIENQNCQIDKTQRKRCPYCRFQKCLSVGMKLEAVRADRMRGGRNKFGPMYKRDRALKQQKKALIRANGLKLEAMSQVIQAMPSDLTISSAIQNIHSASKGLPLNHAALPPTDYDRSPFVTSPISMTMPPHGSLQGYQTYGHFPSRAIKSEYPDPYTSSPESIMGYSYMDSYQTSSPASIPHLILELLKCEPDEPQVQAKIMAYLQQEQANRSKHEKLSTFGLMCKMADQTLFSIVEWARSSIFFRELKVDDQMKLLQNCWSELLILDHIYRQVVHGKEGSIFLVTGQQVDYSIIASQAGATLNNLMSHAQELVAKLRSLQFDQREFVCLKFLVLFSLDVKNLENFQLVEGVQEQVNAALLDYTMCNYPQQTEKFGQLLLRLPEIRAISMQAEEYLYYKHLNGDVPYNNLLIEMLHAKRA
Sequence of Voltage-dependent T-type calcium channel subunit alpha-1H (O95180 whole entry): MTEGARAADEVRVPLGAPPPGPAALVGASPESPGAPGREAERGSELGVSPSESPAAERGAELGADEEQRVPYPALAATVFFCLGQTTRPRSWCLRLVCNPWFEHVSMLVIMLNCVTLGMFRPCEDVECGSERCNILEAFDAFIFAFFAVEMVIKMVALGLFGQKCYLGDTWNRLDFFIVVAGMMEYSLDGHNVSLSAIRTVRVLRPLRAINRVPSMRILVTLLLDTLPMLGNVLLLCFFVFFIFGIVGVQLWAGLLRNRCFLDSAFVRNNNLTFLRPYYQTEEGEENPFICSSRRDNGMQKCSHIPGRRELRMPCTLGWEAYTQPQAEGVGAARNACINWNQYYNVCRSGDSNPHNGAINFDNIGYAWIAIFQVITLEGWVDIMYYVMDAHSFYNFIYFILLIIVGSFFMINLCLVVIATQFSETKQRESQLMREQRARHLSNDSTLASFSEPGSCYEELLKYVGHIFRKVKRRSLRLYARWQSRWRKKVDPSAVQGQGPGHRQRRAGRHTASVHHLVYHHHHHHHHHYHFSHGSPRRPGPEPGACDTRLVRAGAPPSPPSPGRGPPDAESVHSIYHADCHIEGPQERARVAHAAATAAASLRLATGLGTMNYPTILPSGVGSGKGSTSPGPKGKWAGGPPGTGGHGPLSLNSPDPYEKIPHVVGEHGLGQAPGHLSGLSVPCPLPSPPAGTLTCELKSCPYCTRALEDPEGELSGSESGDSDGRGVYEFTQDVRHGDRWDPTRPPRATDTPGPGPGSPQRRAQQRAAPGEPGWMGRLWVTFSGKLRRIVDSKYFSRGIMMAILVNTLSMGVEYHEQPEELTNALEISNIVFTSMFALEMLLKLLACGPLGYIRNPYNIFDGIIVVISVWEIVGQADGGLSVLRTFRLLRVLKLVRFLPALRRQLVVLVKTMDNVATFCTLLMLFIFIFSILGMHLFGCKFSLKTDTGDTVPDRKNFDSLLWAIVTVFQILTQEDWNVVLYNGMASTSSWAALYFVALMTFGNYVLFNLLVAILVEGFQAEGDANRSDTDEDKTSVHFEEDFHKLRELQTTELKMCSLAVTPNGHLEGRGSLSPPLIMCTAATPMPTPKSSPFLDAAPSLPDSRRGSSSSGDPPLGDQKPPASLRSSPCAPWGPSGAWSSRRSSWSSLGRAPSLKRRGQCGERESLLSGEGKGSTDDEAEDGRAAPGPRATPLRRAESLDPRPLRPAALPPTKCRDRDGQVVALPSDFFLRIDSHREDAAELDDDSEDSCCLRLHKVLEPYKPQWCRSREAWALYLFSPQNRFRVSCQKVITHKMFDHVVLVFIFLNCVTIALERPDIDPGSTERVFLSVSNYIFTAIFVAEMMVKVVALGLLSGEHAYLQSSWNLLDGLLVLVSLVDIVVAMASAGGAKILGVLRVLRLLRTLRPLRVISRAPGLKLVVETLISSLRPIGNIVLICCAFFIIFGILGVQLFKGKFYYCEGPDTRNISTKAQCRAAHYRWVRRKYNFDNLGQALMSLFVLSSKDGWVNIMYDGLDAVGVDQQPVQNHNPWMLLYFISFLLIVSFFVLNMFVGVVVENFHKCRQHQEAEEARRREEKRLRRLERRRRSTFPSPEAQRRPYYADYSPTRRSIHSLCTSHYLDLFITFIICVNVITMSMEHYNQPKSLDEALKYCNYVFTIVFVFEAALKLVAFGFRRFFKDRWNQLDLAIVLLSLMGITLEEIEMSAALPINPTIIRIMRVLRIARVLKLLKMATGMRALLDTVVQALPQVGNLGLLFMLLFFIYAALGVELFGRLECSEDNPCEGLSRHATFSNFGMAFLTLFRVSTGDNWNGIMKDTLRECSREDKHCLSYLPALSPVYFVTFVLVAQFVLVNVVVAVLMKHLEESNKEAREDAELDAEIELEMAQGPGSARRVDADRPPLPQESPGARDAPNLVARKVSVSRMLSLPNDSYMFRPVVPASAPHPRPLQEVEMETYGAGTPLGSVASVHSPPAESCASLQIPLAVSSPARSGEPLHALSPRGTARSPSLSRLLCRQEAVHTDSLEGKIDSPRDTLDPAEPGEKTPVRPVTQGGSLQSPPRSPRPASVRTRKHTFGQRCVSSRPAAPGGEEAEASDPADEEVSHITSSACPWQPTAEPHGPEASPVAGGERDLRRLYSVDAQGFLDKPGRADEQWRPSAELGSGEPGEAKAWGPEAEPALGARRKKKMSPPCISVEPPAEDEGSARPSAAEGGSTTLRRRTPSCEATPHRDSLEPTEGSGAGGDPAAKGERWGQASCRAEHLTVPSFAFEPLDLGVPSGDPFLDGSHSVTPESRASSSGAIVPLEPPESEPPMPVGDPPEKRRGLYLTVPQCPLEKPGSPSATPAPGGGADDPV

As for `O=C(c1ccoc1)N1CCN(c2cc(-c3ccncc3)nc3cc(-c4cccc(Cl)c4)nn23)CC1`, the EC50 in [1] was 3.43 µM (active); in [2] it was 2.21 µM (active). In the assay on H9c2, the IC50 is > 79 µM (inactive).
As to `CC(=O)Nc1ccc(NC(=O)CSc2nnc(-c3cc4ccccc4o3)n2C)cc1`, the IC50 at Steroidogenic factor 1 is 18.2 µM (inactive); in [3], 35.9 µM (inactive); in [4] it was 35.9 µM (inactive).
On to `O=C(O)c1coc(-c2ccc(-c3ccccc3)cc2)n1`, for which, in assay [5], the EC50 is > 100 µM (inactive).
Regarding `O=C(C1=C(c2ccccc2)C(=O)c2ccccc2C1=O)c1ccccc1`, the EC50 in assay [6] was 2.72 µM (active); with BJ [7] it was 8.65 µM (inconclusive); in the assay on BJ [9], 7.17 µM (active); in assay [11], > 150 µM (not active); in the assay on BJ [12], 5.95 µM (inconclusive); at Protein RecA, 0.862 µM (active). Further, the EC50 in [13] was 2.73 µM (active). The AC50 in assay [8] is 8.2 µM (active). In addition, the figures for the IC50 (on Hexokinase HKDC1; in assay [10]) were 10.1 µM (active) and 13.8 µM (inactive), respectively.
For `CCOc1ccc(-c2nc(CSCC(=O)NC3CCCc4ccccc43)c(C)o2)cc1` (centres undefined), in assay [14], the IC50 is 1.51 µM (active). In assay [15], the EC50 is 3.26 µM (active).

In general, IC50 refers to the concentration that gives 50% inhibition. In general, AC50 refers to the midpoint of the concentration-response curve, whichever way the signal moves.
